Results taken from PubChem BioAssay (NCI).
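Assay format: 96-well plates, 48-hour exposure. GI50: concentration for 50% inhibition of growth. TGI marks complete inhibition of growth.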 Where a SMILES comes first, the peptide text is derived from it. [ ]: non-standard residue; d: D form. The star is where a group is joined. AllylGly = C=CC[CH](N)C(=O)O; Boc = CC(C)(C)OC(=O)*; OtBu = CC(C)(C)O*

Legend:
Experiment in all cases: DTP human tumour cell line panel, 48 h
[1] = tested on: HOP-18 NSCLC
[2] = tested on: UACC-62 melanoma
[3] = tested on: U251 CNS
[4] = tested on: SNB-19 CNS
[5] = tested on: LXFL 529 NSCLC
[6] = tested on: IGROV1 ovarian
[7] = tested on: T-47D breast
[8] = tested on: BT-549 breast
[9] = tested on: SK-MEL-2 melanoma
[10] = tested on: LOX IMVI melanoma
[11] = tested on: HL-60(TB) leukemia
[12] = tested on: NCI-H522 lung
[13] = tested on: HS 578T breast
[14] = tested on: SW-620 colon
[15] = tested on: DLD-1 colon
[16] = tested on: UACC-257 melanoma
[17] = tested on: MALME-3M melanoma
[18] = tested on: SNB-78 CNS
[19] = tested on: SNB-75 CNS
[20] = tested on: M14 melanoma
[21] = tested on: SF-268 CNS
[22] = tested on: OVCAR-4 ovarian
[23] = tested on: COLO 205 colon
[24] = tested on: NCI-H226 lung
[25] = tested on: NCI/ADR-RES ovarian
[26] = tested on: CCRF-CEM leukemia
[27] = tested on: NCI-H23 lung
[28] = tested on: A498 renal
[29] = tested on: HCT-15 colon
[30] = tested on: CAKI-1 renal
[31] = tested on: HOP-62 NSCLC
[32] = tested on: RPMI-8226 leukemia
[33] = tested on: KM20L2 colon
[34] = tested on: MCF7 breast
[35] = tested on: OVCAR-5 ovarian
[36] = tested on: RXF 393 renal
[37] = tested on: UO-31 renal
[38] = tested on: NCI-H460 lung
[39] = tested on: K-562 leukemia
[40] = tested on: MDA-MB-435
[41] = tested on: KM12 colon
[42] = tested on: SK-MEL-5 melanoma
[43] = tested on: HT29 colon
[44] = tested on: SF-295 CNS
[45] = tested on: SK-OV-3 ovarian
[46] = tested on: HOP-92 NSCLC
[47] = tested on: SR leukemia
[48] = tested on: SN12C renal
[49] = tested on: HCC-2998 colon
[50] = tested on: MOLT-4 leukemia
[51] = tested on: OVCAR-3 ovarian
[52] = tested on: MDA-MB-231 breast
[53] = tested on: EKVX NSCLC
[54] = tested on: SK-MEL-28 melanoma
[55] = tested on: 786-0 renal
[56] = tested on: ACHN renal
[57] = tested on: SF-539 CNS
[58] = tested on: HCT-116 colon
[59] = tested on: OVCAR-8 ovarian
[60] = tested on: M19-MEL melanoma
[61] = tested on: DMS 273 small cell lung
[62] = tested on: DU-145 prostate
[63] = tested on: TK-10 renal
[64] = tested on: PC-3 prostate
[65] = tested on: A549 NSCLC
[66] = tested on: DMS 114 small cell lung
[67] = tested on: MDA-N

## CN(C)c1ccc(/C=C(/NC(=O)c2ccccc2)c2nc3ccc(Cl)cc3[nH]2)cc1
[1]
  TGI: 8.45 µM
[2]
  TGI: 97.6 µM
[3]
  TGI: > 100 µM
[4]
  TGI: > 100 µM
[5]
  TGI: 97.4 µM
[6]
  TGI: > 100 µM
[7]
  GI50: 17.5 µM
  TGI: > 77.1 µM
[8]
  GI50: 25.4 µM
  TGI: 85.8 µM
[9]
  TGI: 99.4 µM
[10]
  TGI: > 70.6 µM
[11]
  TGI: 66.9 µM
[12]
  TGI: > 74.1 µM
[13]
  GI50: 59.6 µM
  TGI: > 100 µM
[14]
  TGI: > 60.5 µM
[15]
  TGI: > 100 µM
[16]
  TGI: > 86.5 µM
[17]
  TGI: > 82.9 µM
[18]
  TGI: > 100 µM
[19]
  TGI: > 91.3 µM
[20]
  TGI: > 100 µM
[21]
  TGI: > 100 µM
[22]
  TGI: > 100 µM
[23]
  TGI: 66.7 µM
[24]
  TGI: > 85.1 µM
[25]
  GI50: 30.7 µM
  TGI: > 100 µM
[26]
  TGI: > 84 µM
[27]
  TGI: > 100 µM
[28]
  TGI: > 100 µM
[29]
  TGI: > 73.1 µM
[30]
  TGI: > 100 µM
[31]
  TGI: > 100 µM
[32]
  TGI: > 82.2 µM
[33]
  TGI: 84.8 µM
[34]
  GI50: 24.5 µM
  TGI: > 100 µM
[35]
  TGI: 97.5 µM
[36]
  TGI: > 93.9 µM
[37]
  TGI: > 100 µM
[38]
  TGI: > 100 µM
[39]
  TGI: > 73.8 µM
[40]
  GI50: 29.8 µM
  TGI: > 100 µM
[41]
  TGI: > 100 µM
[42]
  TGI: 39.3 µM
[43]
  TGI: 78.5 µM
[44]
  TGI: > 87.3 µM
[45]
  TGI: > 100 µM
[46]
  TGI: 80.1 µM
[47]
  TGI: > 89.4 µM
[48]
  TGI: > 100 µM
[49]
  TGI: > 75.5 µM
[50]
  TGI: 71.1 µM
[51]
  TGI: > 9.31 µM
[52]
  GI50: 28.4 µM
  TGI: > 95.3 µM
[53]
  TGI: > 100 µM
[54]
  TGI: > 100 µM
[55]
  TGI: > 100 µM
[56]
  TGI: > 100 µM
[57]
  TGI: > 100 µM
[58]
  TGI: > 100 µM
[59]
  TGI: > 100 µM
[60]
  TGI: 69.6 µM
[61]
  TGI: > 100 µM
[62]
  GI50: 71.5 µM
  TGI: > 100 µM
[63]
  TGI: > 100 µM
[64]
  GI50: 29.2 µM
  TGI: > 100 µM
[65]
  TGI: > 100 µM

## NC(=O)N1N=C2c3ccccc3CC[C@@H]2C1c1ccccc1 (stereo partly specified)
[2]
  TGI: > 100 µM
[3]
  TGI: > 100 µM
[4]
  TGI: > 100 µM
[5]
  TGI: > 100 µM
[6]
  TGI: > 100 µM
[9]
  TGI: > 100 µM
[10]
  TGI: > 100 µM
[11]
  TGI: > 100 µM
[12]
  TGI: > 100 µM
[14]
  TGI: > 100 µM
[15]
  TGI: > 100 µM
[16]
  TGI: > 100 µM
[17]
  TGI: > 100 µM
[18]
  TGI: > 100 µM
[19]
  TGI: > 100 µM
[20]
  TGI: > 100 µM
[21]
  TGI: > 100 µM
[23]
  TGI: > 100 µM
[24]
  TGI: > 100 µM
[26]
  TGI: > 100 µM
[27]
  TGI: > 100 µM
[28]
  TGI: > 100 µM
[29]
  TGI: > 100 µM
[66]
  TGI: > 100 µM
[30]
  TGI: > 100 µM
[31]
  TGI: > 100 µM
[32]
  TGI: > 100 µM
[33]
  TGI: > 100 µM
[35]
  TGI: > 100 µM
[36]
  TGI: > 100 µM
[37]
  TGI: > 100 µM
[38]
  TGI: > 100 µM
[39]
  TGI: > 100 µM
[41]
  TGI: > 100 µM
[42]
  TGI: > 100 µM
[43]
  TGI: > 100 µM
[44]
  TGI: > 100 µM
[45]
  TGI: > 100 µM
[48]
  TGI: > 100 µM
[49]
  TGI: > 100 µM
[50]
  TGI: > 100 µM
[51]
  TGI: > 100 µM
[53]
  TGI: > 100 µM
[54]
  TGI: > 100 µM
[55]
  TGI: > 100 µM
[56]
  TGI: > 100 µM
[57]
  TGI: > 100 µM
[58]
  TGI: > 100 µM
[59]
  TGI: > 100 µM
[60]
  TGI: > 100 µM
[61]
  TGI: > 100 µM
[63]
  TGI: > 100 µM
[65]
  TGI: > 100 µM

## C=CCC(NC(=O)C(CC(=O)OC(C)(C)C)NC(=O)OC(C)(C)C)C(=O)OC (stereo unspecified) (Boc-Asp(OtBu)-[AllylGly]-OMe; configuration not given here)
[2]
  TGI: > 100 µM
[3]
  TGI: > 63 µM
[4]
  TGI: > 100 µM
[6]
  TGI: > 100 µM
[7]
  TGI: > 100 µM
[8]
  TGI: > 100 µM
[9]
  TGI: > 100 µM
[10]
  TGI: 41.7 µM
[11]
  TGI: 85.5 µM
[12]
  TGI: > 100 µM
[13]
  TGI: > 100 µM
[14]
  TGI: > 100 µM
[16]
  TGI: 58.1 µM
[17]
  TGI: 3.04 µM
[19]
  TGI: > 100 µM
[20]
  TGI: 43 µM
[21]
  TGI: > 100 µM
[22]
  TGI: > 100 µM
[23]
  TGI: 51.8 µM
[24]
  TGI: > 100 µM
[25]
  TGI: > 100 µM
[26]
  TGI: > 100 µM
[27]
  TGI: > 100 µM
[28]
  TGI: > 100 µM
[29]
  TGI: > 100 µM
[30]
  TGI: > 100 µM
[31]
  TGI: > 100 µM
[32]
  TGI: > 84.6 µM
[34]
  TGI: > 100 µM
[35]
  TGI: > 100 µM
[36]
  TGI: > 100 µM
[37]
  TGI: > 100 µM
[38]
  TGI: > 100 µM
[39]
  TGI: > 100 µM
[40]
  TGI: > 91.3 µM
[41]
  TGI: > 100 µM
[42]
  TGI: > 57.3 µM
[43]
  TGI: > 100 µM
[44]
  TGI: > 100 µM
[45]
  TGI: > 100 µM
[46]
  TGI: > 100 µM
[47]
  TGI: > 100 µM
[48]
  TGI: > 100 µM
[49]
  TGI: 61.3 µM
[50]
  TGI: > 91.6 µM
[51]
  TGI: 61.4 µM
[52]
  TGI: > 100 µM
[53]
  TGI: > 100 µM
[54]
  TGI: > 100 µM
[67]
  TGI: > 79.7 µM
[55]
  TGI: > 100 µM
[56]
  TGI: > 100 µM
[57]
  TGI: > 100 µM
[58]
  TGI: > 100 µM
[59]
  TGI: 26.6 µM
[62]
  TGI: > 100 µM
[63]
  TGI: > 100 µM
[64]
  TGI: > 100 µM
[65]
  TGI: > 100 µM
